Values of other authors, collected in article PMC12162873, “Modulating phosphatase DUSP22 with BML-260 ameliorates skeletal muscle wasting via Akt independent JNK-FOXO3a repression” (EMBO Molecular Medicine, 2025).

Key:
JNK = system: JNK; parameters: method as in ref [19] Bennett et al, 2001; conditions: ref [19] Bennett et al, 2001; cited from earlier work
aldose reductase = system: aldose reductase; parameters: method as in Ramirez and Borja, 2008; conditions: drug for diabetic neuropathy; ref Ramirez and Borja, 2008; cited from earlier work

Q: With `Oc1c2ccccc2c2c3c(cccc13)N=N2` [SP600125] as the compound, how does the “selectivity versus a range of kinases and enzymes tested” value (JNK) read?
A: > 20 -fold

Q: For `CC(/C=C1\SC(=S)N(CC(=O)O)C1=O)=C\c1ccccc1` [Epalrestat], which safety and tolerability (aldose reductase) is on record?
A: safe, well-tolerated
